According to PubChem BioAssay (NCI):
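Method: 48-hour compound exposure of cells in 96-well plates, five concentrations, linear interpolation of endpoints. GI50 is the concentration that inhibits growth by half. TGI denotes the concentration required for complete inhibition of growth.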

What was measured:
Assay in all cases: growth of human tumour cells (NCI), 48 h
SF-539 CNS = system: SF-539 CNS
HOP-92 NSCLC = system: HOP-92 NSCLC
NCI-H460 lung = system: NCI-H460 lung
RPMI-8226 leukemia = system: RPMI-8226 leukemia
ACHN renal = system: ACHN renal
SW-620 colon = system: SW-620 colon
786-0 renal = system: 786-0 renal
HCT-116 colon = system: HCT-116 colon
SR leukemia = system: SR leukemia
HCC-2998 colon = system: HCC-2998 colon
M14 melanoma = system: M14 melanoma
U251 CNS = system: U251 CNS
SK-MEL-2 melanoma = system: SK-MEL-2 melanoma
K-562 leukemia = system: K-562 leukemia
HCT-15 colon = system: HCT-15 colon
SF-268 CNS = system: SF-268 CNS
CCRF-CEM leukemia = system: CCRF-CEM leukemia
SK-MEL-28 melanoma = system: SK-MEL-28 melanoma
SK-MEL-5 melanoma = system: SK-MEL-5 melanoma
UACC-62 melanoma = system: UACC-62 melanoma
OVCAR-8 ovarian = system: OVCAR-8 ovarian
SNB-75 CNS = system: SNB-75 CNS
MCF7 breast = system: MCF7 breast
TK-10 renal = system: TK-10 renal
OVCAR-5 ovarian = system: OVCAR-5 ovarian
SK-OV-3 ovarian = system: SK-OV-3 ovarian
A498 renal = system: A498 renal
IGROV1 ovarian = system: IGROV1 ovarian
MOLT-4 leukemia = system: MOLT-4 leukemia
HOP-62 NSCLC = system: HOP-62 NSCLC
T-47D breast = system: T-47D breast
COLO 205 colon = system: COLO 205 colon
RXF 393 renal = system: RXF 393 renal
NCI/ADR-RES ovarian = system: NCI/ADR-RES ovarian
MDA-MB-231 breast = system: MDA-MB-231 breast
UO-31 renal = system: UO-31 renal
SF-295 CNS = system: SF-295 CNS
A549 NSCLC = system: A549 NSCLC
DU-145 prostate = system: DU-145 prostate
KM12 colon = system: KM12 colon
SN12C renal = system: SN12C renal
BT-549 breast = system: BT-549 breast
HT29 colon = system: HT29 colon
LOX IMVI melanoma = system: LOX IMVI melanoma
UACC-257 melanoma = system: UACC-257 melanoma
OVCAR-3 ovarian = system: OVCAR-3 ovarian
NCI-H522 lung = system: NCI-H522 lung
EKVX NSCLC = system: EKVX NSCLC
PC-3 prostate = system: PC-3 prostate
MDA-MB-435 = system: MDA-MB-435
SNB-19 CNS = system: SNB-19 CNS
HL-60(TB) leukemia = system: HL-60(TB) leukemia
HS 578T breast = system: HS 578T breast
MALME-3M melanoma = system: MALME-3M melanoma
OVCAR-4 ovarian = system: OVCAR-4 ovarian
CAKI-1 renal = system: CAKI-1 renal

Nc1nc(-c2cccc([N+](=O)[O-])c2)c(N=Nc2ccc(Br)cc2)s1
GI50 (SF-539 CNS): 3 µM
TGI (SF-539 CNS): 10.4 µM
GI50 (HOP-92 NSCLC): 10.1 µM
TGI (HOP-92 NSCLC): 32.1 µM
GI50 (NCI-H460 lung): 12.8 µM
TGI (NCI-H460 lung): 44.6 µM
GI50 (RPMI-8226 leukemia): 21 µM
TGI (RPMI-8226 leukemia): > 100 µM
GI50 (ACHN renal): 14.2 µM
TGI (ACHN renal): 27.3 µM
GI50 (SW-620 colon): 15.4 µM
TGI (SW-620 colon): 78.8 µM
GI50 (786-0 renal): 13.6 µM
TGI (786-0 renal): 27.5 µM
GI50 (HCT-116 colon): 4.63 µM
TGI (HCT-116 colon): 16 µM
GI50 (SR leukemia): 21.6 µM
TGI (SR leukemia): > 100 µM
GI50 (HCC-2998 colon): 18.7 µM
TGI (HCC-2998 colon): 38.8 µM
GI50 (M14 melanoma): 17.3 µM
TGI (M14 melanoma): 38.8 µM
GI50 (U251 CNS): 14.2 µM
TGI (U251 CNS): 33.6 µM
GI50 (SK-MEL-2 melanoma): 18.6 µM
TGI (SK-MEL-2 melanoma): 51.8 µM
GI50 (K-562 leukemia): 10.3 µM
TGI (K-562 leukemia): > 100 µM
GI50 (HCT-15 colon): 5.57 µM
TGI (HCT-15 colon): 33.2 µM
GI50 (SF-268 CNS): 19.1 µM
TGI (SF-268 CNS): 99.4 µM
GI50 (CCRF-CEM leukemia): 13.4 µM
TGI (CCRF-CEM leukemia): > 100 µM
GI50 (SK-MEL-28 melanoma): 18.7 µM
TGI (SK-MEL-28 melanoma): 47 µM
GI50 (SK-MEL-5 melanoma): 16.9 µM
TGI (SK-MEL-5 melanoma): 31.5 µM
GI50 (UACC-62 melanoma): 15.1 µM
TGI (UACC-62 melanoma): 41.4 µM
GI50 (OVCAR-8 ovarian): 10.2 µM
TGI (OVCAR-8 ovarian): 33.6 µM
GI50 (SNB-75 CNS): 18.4 µM
TGI (SNB-75 CNS): 41.1 µM
GI50 (MCF7 breast): 12.7 µM
TGI (MCF7 breast): > 100 µM
GI50 (TK-10 renal): 21.6 µM
TGI (TK-10 renal): 36.5 µM
GI50 (OVCAR-5 ovarian): 20.3 µM
TGI (OVCAR-5 ovarian): 54.4 µM
GI50 (SK-OV-3 ovarian): 16 µM
TGI (SK-OV-3 ovarian): 30.1 µM
GI50 (A498 renal): 16.7 µM
TGI (A498 renal): 31.7 µM
GI50 (IGROV1 ovarian): 16.2 µM
TGI (IGROV1 ovarian): 47.8 µM
GI50 (MOLT-4 leukemia): 12 µM
TGI (MOLT-4 leukemia): > 100 µM
GI50 (HOP-62 NSCLC): 15.2 µM
TGI (HOP-62 NSCLC): 29.8 µM
GI50 (T-47D breast): 9.84 µM
TGI (T-47D breast): 46 µM
GI50 (COLO 205 colon): 24.6 µM
TGI (COLO 205 colon): 94 µM
GI50 (RXF 393 renal): 12.6 µM
TGI (RXF 393 renal): 25.4 µM
GI50 (NCI/ADR-RES ovarian): 7.93 µM
TGI (NCI/ADR-RES ovarian): > 100 µM
GI50 (MDA-MB-231 breast): 7.74 µM
TGI (MDA-MB-231 breast): 24 µM
GI50 (UO-31 renal): 12.7 µM
TGI (UO-31 renal): 25.2 µM
GI50 (SF-295 CNS): 23 µM
TGI (SF-295 CNS): 49.8 µM
GI50 (A549 NSCLC): 17 µM
TGI (A549 NSCLC): 35.1 µM
GI50 (DU-145 prostate): 8.14 µM
TGI (DU-145 prostate): 25.8 µM
GI50 (KM12 colon): 16.1 µM
TGI (KM12 colon): > 100 µM
GI50 (SN12C renal): 14.1 µM
TGI (SN12C renal): 37.2 µM
GI50 (BT-549 breast): 15.7 µM
TGI (BT-549 breast): 40.8 µM
GI50 (HT29 colon): 19.4 µM
TGI (HT29 colon): > 100 µM
GI50 (LOX IMVI melanoma): 4 µM
TGI (LOX IMVI melanoma): 26.6 µM
GI50 (UACC-257 melanoma): 22.4 µM
TGI (UACC-257 melanoma): 50.8 µM
GI50 (OVCAR-3 ovarian): 18.6 µM
TGI (OVCAR-3 ovarian): 41.3 µM
GI50 (NCI-H522 lung): 10.9 µM
TGI (NCI-H522 lung): 35.8 µM
GI50 (EKVX NSCLC): 17.9 µM
TGI (EKVX NSCLC): 64.1 µM
GI50 (PC-3 prostate): 20.2 µM
TGI (PC-3 prostate): 86 µM
GI50 (MDA-MB-435): 20.5 µM
TGI (MDA-MB-435): 57.2 µM
GI50 (SNB-19 CNS): 20.3 µM
TGI (SNB-19 CNS): 50.1 µM
GI50 (HL-60(TB) leukemia): 91.2 µM
TGI (HL-60(TB) leukemia): > 100 µM
GI50 (HS 578T breast): 19.3 µM
TGI (HS 578T breast): > 100 µM
GI50 (MALME-3M melanoma): 16.3 µM
TGI (MALME-3M melanoma): 30.5 µM
GI50 (OVCAR-4 ovarian): 11.1 µM
TGI (OVCAR-4 ovarian): 63.3 µM
GI50 (CAKI-1 renal): 12 µM
TGI (CAKI-1 renal): 24.3 µM
